Test results: patent publication US20040106802A1, “Novel compounds and therapeutic uses thereof” (TORRENT PHARMACEUTICALS LTD., priority 2002, published 2004)
Where two headings read alike, the source gives them in different places.

Assays:
Porcine DPP-IV = target: T1, Porcine DPP-IV (Sus scrofa, UniProt P22411); test: Assay of DPP-IV enzyme inhibitory activity (spectrophotometric, Gly-Pro-pNA cleavage); assay type: biochemical
T1 construct: purchased Sigma-Aldrich Germany

[1] = In-vitro free radical scavenging activity using DPPH free radical; settings: 30° C., 30 minutes, 515 nm
Excerpt: Free Radical Scavenging Activity:
To determine the in-vitro free radical scavenging activity of compounds of general formula-I on 2,2,-diphenyl-1-picrylhydrazyl (DPPH)radical (Ref: W. Brand-Williams, M. E. Cuvelier, C. Berset “Use of a free radical method to evaluate antioxidant activity”, Lebensm.- Wiss.u.Technol.,1995,28,Nr.1:25-30).
To evaluate the free radical scavenging activity of compounds they are allowed to react with stable radical DPPH*. In its radical form, DPPH* absorbed at the characteristic wave length of 515 nm, but upon reduction by an antioxidant or radical scavenger (AH), the absorption disappears.
10^−4M solution of DPPH* was prepared in methanol.
Various concentrations (10 mM, 1 mM, 0.5 mM, 0.25 mM and 0.125 mM) of drug solutions were prepared in methanol.
900 μl of DPPH radical solution was added to an eppendorf tube. To it was added 100 μl of methanol.
900 μl of DPPH radical solution was added to an eppendorf tube. To it was added 100 μl of various concentrations of drug solutions in methanol.
The absorbance of control and test samples was recorded after incubation at 30° C. for 30 minutes, at 515 nm taking methanol as blank.
The percent antioxidant activity was calculated according to the formula:
% Antioxidant activity=100−[O.D of test sample/O.D of control*100]

[2] = Porcine DPP-IV, Gly-Pro-pNA substrate, 30° C., mean ± SD of three experiments except compound Nos. 133 & 139, read-out: IC50 (μM) Mean ± SD, inhibitory activity on DPP-IV enzyme activity

T1 sequence (P22411 whole entry): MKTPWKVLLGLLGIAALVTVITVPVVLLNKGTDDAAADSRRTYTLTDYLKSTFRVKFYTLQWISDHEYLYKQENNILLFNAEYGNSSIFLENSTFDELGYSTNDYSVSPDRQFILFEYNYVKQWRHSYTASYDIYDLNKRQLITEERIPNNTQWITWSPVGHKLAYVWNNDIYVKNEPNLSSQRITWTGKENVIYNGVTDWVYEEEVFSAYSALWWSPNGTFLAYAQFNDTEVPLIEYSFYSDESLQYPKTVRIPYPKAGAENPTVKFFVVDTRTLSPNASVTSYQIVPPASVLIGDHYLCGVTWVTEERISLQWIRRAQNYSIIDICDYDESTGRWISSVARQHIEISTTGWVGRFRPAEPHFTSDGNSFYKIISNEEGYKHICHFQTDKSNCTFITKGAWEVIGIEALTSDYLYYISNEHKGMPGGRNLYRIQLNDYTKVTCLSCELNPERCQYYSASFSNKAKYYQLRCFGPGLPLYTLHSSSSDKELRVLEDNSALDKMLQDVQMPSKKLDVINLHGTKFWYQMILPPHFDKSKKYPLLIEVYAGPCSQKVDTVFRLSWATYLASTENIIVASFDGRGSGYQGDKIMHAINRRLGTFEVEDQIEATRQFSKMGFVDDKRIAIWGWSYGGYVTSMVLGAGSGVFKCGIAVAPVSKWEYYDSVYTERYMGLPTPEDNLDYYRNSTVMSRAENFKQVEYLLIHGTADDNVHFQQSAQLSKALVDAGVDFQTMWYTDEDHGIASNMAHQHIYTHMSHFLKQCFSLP

| IC50 (Porcine DPP-IV; read-out: dipeptidyl peptidase-IV inhibitory IC50's in the range) | SMILES | IC50 (Porcine DPP-IV; [2]) | % Activity (antioxidant, DPPH) ([1]; Concentration 100 μM) | % Activity (antioxidant, DPPH) ([1]; Concentration 12.5 μM) | % Activity (antioxidant, DPPH) ([1]; Concentration 25 μM) | % Activity (antioxidant, DPPH) ([1]; Concentration 50 μM) | % Activity (antioxidant, DPPH) ([1]; Concentration 12.5 μM, 12.5 µM) | % Activity (antioxidant, DPPH) ([1]; Concentration 25 μM, 25 µM) | % Activity (antioxidant, DPPH) ([1]; Concentration 50 μM, 50 µM) | % Activity (antioxidant, DPPH) ([1]; Concentration 100 μM, 100 µM) |
| --- | --- | --- | --- | --- | --- | --- | --- | --- | --- | --- |
|  | Cc1nc(NC(=O)CN2CCC(N(N)CC(=O)N3CSCC3C#N)CC2)sc1C (centres unmarked) [compound 119, 3-[1-oxo-2-(1-(1-(2-oxo-2-(4,5-dimethylthiazole-2-yl)aminoethyl)piperidin-4-yl)) hydrazino]ethyl-4-cyanothiazolidine, tris-trifluoroacetate] | 0.185 ± 0.01 µM | 54.93% |  |  |  |  |  |  |  |
|  | N#CC1CSCN1C(=O)CN(N)C1CCCC1.O=C(O)C(F)(F)F (centres unmarked) [Compound No. 19, 3-[1-Oxo-2-((1-Cyclopentyl)-hydrazino)]ethyl-4-cyano thiazolidine trifluoroacetate] | 1.46 ± 0.16 µM | 94.55% |  |  |  |  |  |  |  |
|  | N#CC1CSCN1C(=O)CN(N)C1CCCCC1.O=C(O)C(F)(F)F (centres unmarked) [Compound No. 21, 3-[1-Oxo-2-((1-Cyclohexyl)-hydrazino)]ethyl-4-cyano thiazolidine trifluoroacetate] | 2.01 ± 0.16 µM | 95.71% |  |  |  |  |  |  |  |
|  | N#CC1CSCN1C(=O)CN(N)C1CCN(CC(=O)Nc2ccc3c(c2)OCO3)CC1 (centres unmarked) [compound 130, 3-[1-oxo-2-(1-(1-(2-oxo-2-(3,4-methelenedioxyphenyl)aminoethyl)piperidine-4-yl))hydrazino]ethyl-4-cyanothiazolidine, bis-trifluoroacetate] | 0.24 ± 0.025 µM | 56.37% |  |  |  |  |  |  |  |
|  | N#Cc1ccc(NC(=O)CN2CCC(N(N)CC(=O)N3CSCC3C#N)CC2)nc1 (centres unmarked) [compound 120, 3-[1-oxo-2-(1-(1-(2-oxo-2(5-cyanopyridin-2-yl)aminoethyl)piperidin-4-yl))hydrazino]ethyl-4-cyanothiazolidine, tris-trifluoroacetate] | 0.09 ± 0.02 µM | 55.03% |  |  |  |  |  |  |  |
|  | CC(C)NN(CC(=O)N1CSCC1C#N)C1CCN(S(C)(=O)=O)CC1.O=C(O)C(F)(F)F (centres unmarked) [Compound No. 87, 3-[1-oxo-2-[1-(1 (methylsulphonyl)-piperidin-4-yl)-2-isopropyl]hydrazino]ethyl-4-cyanothiazolidine trifluoroacetate] | 18.3 ± 3.2 µM | 55.94% | 12.87% | 30.88% | 44.03% |  |  |  |  |
|  | N#CC1CSCN1C(=O)CN(N)C1CCN(CC(=O)NC23CC4CC(CC(C4)C2)C3)CC1 (centres unmarked) [Compound No. 103, 3-[1-oxo-2-[1-(1-(2-oxo-2(-adamant-1-yl)aminoethyl)piperidin-4-yl)]hydrazino]ethyl-4-cyanothiazolidine bis-trifluoroacetate] | 0.523 ± 0.017 µM | 54.81% | 20.41% | 40.80% | 44.09% |  |  |  |  |
|  | N#CC1CSCN1C(=O)CN(N)C1CCN(CC(=O)Nc2ccc(S(N)(=O)=O)cc2)CC1 (centres unmarked) [compound 131, 3-[1-oxo-2-(1-(1-(2-oxo-2-(4-aminosulphonylphenyl)aminoethyl)piperidin-4-yl))hydrazino]ethyl-4-cyanothiazolidine, bis-trifluoroacetate] | 0.0985 ± 0.012 µM | 57.73% |  |  |  |  |  |  |  |
|  | N#CC1CSCN1C(=O)CN(N)C1CCC(NCc2ccc(F)cc2)CC1 (centres unmarked) [Compound No. 93, 3-[1-oxo-2-[1-(1-(4-fluorobenzyl)aminocyclohexan-4-yl)]hydrazino]ethyl-4-cyanothiazolidine bis-trifluoroacetate] | 5.56 ± 0.18 µM | 64.24% | 15.18% | 28.08% | 44.13% |  |  |  |  |
|  | CCN(C)C(=O)N1CCC(N(N)CC(=O)N2CSCC2C#N)CC1.O=C(O)C(F)(F)F (centres unmarked) [Compound No. 90, 3-[1-oxo-2-[1-(1-(N-ethylmethylaminocarbonyl)-piperidin-4-yl)]hydrazino]ethyl-4-cyanothiazolidine trifluoroacetate] | 1.23 ± 0.3 µM | 82.75% | 21.81% | 42.93% | 62.91% |  |  |  |  |
|  | CC(C)(C)C(=O)NC1CCC(N(N)CC(=O)N2CSCC2C#N)CC1.O=C(O)C(F)(F)F (centres unmarked) [Compound No. 98, 3-[1-oxo-2-[(1-(trimethylacetamido)cyclohexan-4-yl)]hydrazino]ethyl-4-cyanothiazolidine trifluoroacetate] | 0.71 ± 0.01 µM |  |  |  |  | 21.99% | 40.77% | 59.21% | 73.35% |
| 0.088 to 0.25 µM | N#CC1CSCN1C(=O)CN(N)C1CCN(CC(=O)NC2CC2)CC1 (centres unmarked) [Compound No. 108, 3[1-oxo-2-[1-(1-(2-oxo-2-(cyclopropyl)aminoethyl)piperidin-4-yl)]hydrazino]ethyl-4-cyanothiazolidine bis-trifluoroacetate] | 0.236 ± 0.025 µM | 52.72% | 20.19% | 26.25% | 34.71% |  |  |  |  |
|  | CS(=O)(=O)N1CCC(N(N)CC(=O)N2CSCC2C#N)CC1.O=C(O)C(F)(F)F (centres unmarked) [Compound No. 86, 3-[1-oxo-2-[1-(1-(methylsulphonyl)-piperidin-4-yl)]hydrazino]ethyl-4-cyanothiazolidine trifluoroacetate] | 1.46 ± 0.22 µM | 88.14% | 22.72% | 45.27% | 70.18% |  |  |  |  |
|  | CC1CCC(N(N)CC(=O)N2CSCC2C#N)CC1.O=C(O)C(F)(F)F (centres unmarked) [Compound No. 25, 3-[1-Oxo-2-((1-(4-methyl)cyclohexyl)hydrazino)]ethyl-4-cyano thiazolidine trifluoroacetate] | 0.67 ± 0.03 µM |  |  |  |  |  |  |  | 95.66% |
